Assays:
[1] = target: T1, VEGF receptor tyrosine kinase-2 (VEGF-R2) (Homo sapiens, UniProt P35968); experiment: VEGF receptor-2 kinase assay (Assay 3); assay type: biochemical; conditions: 8 μM ATP, poly-(Glu4Tyr), 10 min 22° C.; read-out: VEGF-R2 (Assay 3) Concentration for half-maximal inhibition of the enzyme activity, IC50
T1 construct: GST; made in house; host or cells: baculovirus-infected insect cells (Sf9)

SW480 = experiment: Proliferation assay SW480; assay type: cell-based; conditions: Homo sapiens, 96 h; SW480, colon/rectum carcinoma; 4 days, crystal violet
Experimental: (§1) Cultivated human tumor cells (originally obtained from ATCC, HeLa-MaTu and HeLa-MaTu-ADR, originally obtained from Epo GmbH, Berlin, Germany) were plated at a density of 1000 to 5000 cells/measuring point, depending on the growth rate of the cell line, in a 96-well multititer plate in 200 μl of growth medium (DMEM/HAMS F12, 2 mM L-glutamine, 10% fetal calf serum). After 24 hours the cells of one plate (zero-point plate) were stained with crystal violet (see below), whereas the medium of the other plates was replaced with fresh culture medium (200 μl), to which the test substances had been added at various concentrations (0 μM, and in the range 0.01-30 μM; the final concentration of the solvent dimethyl sulfoxide was 0.5%). The cells were incubated for 4 days in the presence of the test substances. Cellular proliferation was determined by staining the cells with crystal violet: the cells were fixed by adding 20 μl/measuring point of an 11% glutaraldehyde solution for 15 min at room temperature. After washing the fixed cells with water three times, the plates were dried at room temperature. The cells were stained by adding 100 μl/measuring point of a 0.1% crystal violet solution (pH adjusted to pH3 by adding acetic acid). After washing the stained cells with water three times, the plates were dried at room temperature. The dye was dissolved by adding 100 μl/measuring point of a 10% acetic acid solution. The extinction was determined photometrically at a wavelength of 595 nm. The percentage change in cell growth was calculated by standardization of the measured values to the extinction values of the zero-point plate (=0%) and the extinction of the untreated (0 μM) cells (=100%). The measured data were standardized to 0% inhibition (cell proliferation without inhibitor) and 100% inhibition (zero-point plate). The IC50 values were determined by means of a 4-parameter fit using the company's own software.
(§2) The substances were examined in the following cell lines which, in an exemplary manner, represent the stated indications: […]

SK-BR-3 = experiment: Proliferation assay SK-BR-3; assay type: cell-based; conditions: Homo sapiens, 96 h; SK-BR-3, estrogen receptor-negative mamma carcinoma; 4 days, crystal violet
Experimental: as §1, §2

MDA-MB 453 = experiment: Proliferation assay MDA-MB 453; assay type: cell-based; conditions: Homo sapiens, 96 h; MDA-MB 453, estrogen receptor-negative mamma carcinoma; 4 days, crystal violet
Experimental: as §1, §2

A549 = experiment: Proliferation assay A549; assay type: cell-based; conditions: Homo sapiens, 96 h; A549, non-small-cell bronchial carcinoma; 4 days, crystal violet
Experimental: as §1, §2

786-O = experiment: Proliferation assay 786-O; assay type: cell-based; conditions: Homo sapiens, 786-0, 96 h, kidney carcinoma, 4 days, crystal violet
Experimental: as §1, §2

A431 = experiment: Proliferation assay A431; assay type: cell-based; conditions: Homo sapiens, A-431, 96 h; A431, skin: epidermis; 4 days, crystal violet
Experimental: as §1, §2

A2780-Cis = experiment: Proliferation assay A2780-Cis; assay type: cell-based; conditions: Homo sapiens, A2780cis, 96 h, ovarial carcinoma, 4 days, crystal violet
Experimental: as §1, with “After washing the fixed cells with water three times, the plates were dried at room temperature. The cells were stained by adding 100 μl/measuring point of a 0.1% crystal violet solution (pH adjusted to pH3 by adding acetic acid). After washing the stained cells with water three times, the plates were dried at room temperature. The dye was dissolved by adding 100 μl/measuring point of a 10% acetic acid solution.” left out, “The measured data were standardized to 0% inhibition (cell proliferation without inhibitor) and 100% inhibition (zero-point plate).” left out, “software. […]” for “software.”

HCT116 = experiment: Proliferation assay HCT116; assay type: cell-based; conditions: Homo sapiens, HCT-116, 96 h; HCT116, colon/rectum carcinoma; 4 days, crystal violet
Experimental: as §1, §2

Caco-2 = experiment: Proliferation assay Caco-2; assay type: cell-based, human; conditions: Caco-2, colon/rectum carcinoma, 4 days, crystal violet
In short: (§3)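 Crystal violet absorbance (595 nm) after 4-day compound exposure; cells in DMEM/HAMS F12, 10% FCS, 2 mM glutamine, 1000–5000 cells/well. Dose range 0.01–30 μM, 0.5% DMSO final. Normalised to untreated (0% inhibition) and day-0 plate (100%); IC50 via 4-parameter fit.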

HeLa-MaTu-ADR = experiment: Proliferation assay HeLa-MaTu-ADR; assay type: cell-based, human; conditions: cervix carcinoma, 4 days, crystal violet
In short: as §3

T1 sequence (P35968 20-1356, species assumed): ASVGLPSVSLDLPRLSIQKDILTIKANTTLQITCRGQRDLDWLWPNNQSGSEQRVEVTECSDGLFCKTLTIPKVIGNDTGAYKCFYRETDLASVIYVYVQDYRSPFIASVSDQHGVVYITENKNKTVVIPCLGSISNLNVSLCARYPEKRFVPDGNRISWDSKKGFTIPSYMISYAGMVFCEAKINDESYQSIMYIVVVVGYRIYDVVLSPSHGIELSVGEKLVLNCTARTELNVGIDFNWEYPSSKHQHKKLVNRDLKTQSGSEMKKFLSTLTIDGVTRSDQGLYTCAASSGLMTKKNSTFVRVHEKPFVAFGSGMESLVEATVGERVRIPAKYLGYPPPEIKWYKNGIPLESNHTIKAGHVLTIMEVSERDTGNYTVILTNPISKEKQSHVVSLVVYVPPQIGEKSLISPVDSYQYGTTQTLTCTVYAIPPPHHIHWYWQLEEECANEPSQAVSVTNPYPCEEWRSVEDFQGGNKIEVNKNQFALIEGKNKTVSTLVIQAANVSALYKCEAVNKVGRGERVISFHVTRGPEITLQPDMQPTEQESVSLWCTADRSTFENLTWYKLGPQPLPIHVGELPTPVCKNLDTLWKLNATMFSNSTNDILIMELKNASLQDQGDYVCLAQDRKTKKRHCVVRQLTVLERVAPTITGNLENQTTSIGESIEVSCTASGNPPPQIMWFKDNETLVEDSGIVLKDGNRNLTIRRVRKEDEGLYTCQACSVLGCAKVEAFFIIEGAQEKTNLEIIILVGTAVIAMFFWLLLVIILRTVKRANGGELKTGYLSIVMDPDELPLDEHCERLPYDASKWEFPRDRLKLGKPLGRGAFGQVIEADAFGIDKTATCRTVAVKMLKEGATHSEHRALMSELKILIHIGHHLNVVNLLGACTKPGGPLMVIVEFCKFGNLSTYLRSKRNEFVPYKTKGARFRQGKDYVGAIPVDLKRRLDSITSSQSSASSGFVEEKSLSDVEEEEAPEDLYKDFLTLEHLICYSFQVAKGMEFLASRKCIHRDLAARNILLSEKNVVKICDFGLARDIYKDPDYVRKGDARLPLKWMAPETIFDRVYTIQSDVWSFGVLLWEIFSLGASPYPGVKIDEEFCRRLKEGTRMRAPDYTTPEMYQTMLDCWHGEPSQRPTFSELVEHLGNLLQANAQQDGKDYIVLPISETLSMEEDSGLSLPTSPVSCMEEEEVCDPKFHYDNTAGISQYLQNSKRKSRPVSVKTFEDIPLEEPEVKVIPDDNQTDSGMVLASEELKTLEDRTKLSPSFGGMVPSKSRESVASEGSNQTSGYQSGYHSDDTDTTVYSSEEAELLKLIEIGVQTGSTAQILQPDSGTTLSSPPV

## C[C@@H](O)[C@@H](C)Oc1nc(Nc2ccc(S(C)(=N)=O)cc2)ncc1C(F)(F)F (single isomer, unassigned) [Example 2-SI-2]
[1]
  IC50: 281 nM
SW480
  IC50: 19 nM
SK-BR-3
  IC50: 21 nM
MDA-MB 453
  IC50: 16 nM
A549
  IC50: 23 nM
786-O
  IC50: 22 nM
A431
  IC50: 17 nM
A2780-Cis
  IC50: 10 nM
HCT116
  IC50: 16 nM

## C[C@@H](O)[C@@H](C)Nc1nc(Nc2ccc(S(=N)(=O)C3CC3)cc2)ncc1C(F)(F)F (mixture of isomers) [Example 4-SI-1, (RS)—S-Cyclopropyl-S-(4-{[4-{[(1R,2R)-2-hydroxy-1-methylpropyl]amino}-5-(trifluoromethyl)-pyrimidin-2-yl]amino}phenyl)sulfoximide]
[1]
  IC50: 46 nM
Caco-2; Homo sapiens, Caco-2, 96 h
  IC50: 35 nM
SW480
  IC50: 22 nM
SK-BR-3
  IC50: 33 nM
MDA-MB 453
  IC50: 11 nM
A549
  IC50: < 10 nM
HeLa-MaTu-ADR; Homo sapiens, 96 h
  IC50: 16 nM
786-O
  IC50: 30 nM
A431
  IC50: 20 nM
HCT116
  IC50: 20 nM

## C[C@@H](O)[C@@H](C)Oc1nc(Nc2ccc(S(C)(=N)=O)cc2)ncc1C(F)(F)F (mixture of isomers) [Example 2-SI-2, (RS)—S-(4-{[4-{[(1R,2R)-2-Hydroxy-1-methylpropyl]oxy}-5-(trifluoromethyl)pyrimidin-2-yl]-amino}phenyl)-S-methylsulfoximide]
Caco-2
  IC50: 24 nM
HeLa-MaTu-ADR
  IC50: 7 nM
